How the values were obtained:
NBD1/3D = assay: Aggregation analysis using differential static light scattering (DSLS), NBD1 thermal stability; assay type: binding, Human; conditions: ΔTagg versus DMSO control; compound at 100 μM
Summary of the method: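 Thermal stabilisation reported as ΔTagg, i.e. aggregation temperature relative to averaged DMSO wells. Tagg came from the inflection of differential static light scattering imaged 25–70 °C while NBD1 (0.2 mg/ml, Tris pH 7.6 buffer containing ATP, MgCl2, DTT, glycerol) was ramped 1 °C/min.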

CFTR = molecular target: T1, CFTR (Homo sapiens, UniProt P13569, DEL508-508); assay: TECC24 recording of CFTR-mediated transepithelial chloride transport in ΔF508 homozygous CF-HBE cells; assay type: cell-based; conditions: 10 μM test agent, 48 hours incubation, AUC of forskolin-stimulated IEQ divided by vehicle AUC, primary CF-HBE cells
T1 construct: Primary human bronchial epithelial cells from a ΔF508 homozygous CF donor; host or cells: primary human bronchial epithelial cells (CF-HBE), ΔF508 homozygous donor
Experimental: The effects of a test agent on CFTR-mediated transepithelial chloride transport was measured using TECC24 recording analysis. Test agents were solubilized in DMSO. Solubilized test agents were mixed with incubation medium containing DMEM/F12, Ultroser G (2%; Crescent Chemical, catalog #67042), Hyclone Fetal Clone II (2%; GE Healthcare, catalog #SH30066.02), bovine brain extract (0.25%; Lonza, catalog #CC-4098), insulin (2.5 μg/mL), IL-13 (10 ng/mL), hydrocortisone (20 nM), transferrin (2.5 μg/mL), triiodothyronine (500 nM), ethanolamine (250 nM), epinephrine (1.5 μM), phosphoethanolamine (250 nM), and retinoic acid (10 nM). Primary human bronchial epithelial cells from a ΔF508 homozygous CF donor (CF-HBE cells; from University of North Carolina Cystic Fibrosis Tissue Procurement Center), grown on Transwell HTS 24-well cell culture inserts (Costar, catalog #3378), were exposed to test agents or controls dissolved in incubation medium. The CF-HBE cells were cultured at 36.5° C. for 48 hours before TECC24 recordings were performed in the presence or absence of test agent, a positive control or vehicle (DMSO).
Following incubation, the transwell cell culture inserts containing the test agent or control-treated CF-HBE cells were loaded onto a TECC24 apparatus (TECC v7 or MTECC v2; EP Design) to record the transepithelial voltage (VT) and resistance (TEER) using 4 AgCl electrodes per well configured in current-clamp mode. The apical and basolateral bath solutions both contained (in mM) 140 NaCl, 5 KCl, 2 CaCl2, 1 MgCl2, 10 Hepes, and 10 glucose (adjusted to pH 7.4 with NaOH). To inhibit basal Na+ absorption, the ENaC inhibitor benzamil (10 μM) was added to the bath. Then, the adenylate cyclase activator, forskolin (10 μM), was added to the bath to activate CFTR. The forskolin-stimulated Cl— transport was halted by addition of CFTR inhibitor-172 (20 μM) to the bath at the end of the experiment to confirm specificity. VT and TEER recordings were digitally acquired at routine intervals using TECC or MTECC software (EP Design). VT and TEER were transformed into equivalent transpeithelial Cl— current (IEQ), and the Area Under the Curve (AUC) of the IEQ timecourse between forskolin and CFTR inhibitor-172 addition is generated using Excel (Microsoft). Efficacy is expressed as the ratio of the test agent AUC divided by vehicle AUC. EC50s based on AUC are generated using the non-linear regression log(agonist) vs. response function in Prism software (Graphpad) with HillSlope fixed=1.
If a test agent increased the AUC of the forskolin-stimulated IEQ relative to vehicle in CF-HBE cells, and this increase was inhibited by CFTR inhibitor-172, then the test agent was considered a CFTR corrector.

T1 sequence (P13569 with tags, fused parts or gaps DEL508-508): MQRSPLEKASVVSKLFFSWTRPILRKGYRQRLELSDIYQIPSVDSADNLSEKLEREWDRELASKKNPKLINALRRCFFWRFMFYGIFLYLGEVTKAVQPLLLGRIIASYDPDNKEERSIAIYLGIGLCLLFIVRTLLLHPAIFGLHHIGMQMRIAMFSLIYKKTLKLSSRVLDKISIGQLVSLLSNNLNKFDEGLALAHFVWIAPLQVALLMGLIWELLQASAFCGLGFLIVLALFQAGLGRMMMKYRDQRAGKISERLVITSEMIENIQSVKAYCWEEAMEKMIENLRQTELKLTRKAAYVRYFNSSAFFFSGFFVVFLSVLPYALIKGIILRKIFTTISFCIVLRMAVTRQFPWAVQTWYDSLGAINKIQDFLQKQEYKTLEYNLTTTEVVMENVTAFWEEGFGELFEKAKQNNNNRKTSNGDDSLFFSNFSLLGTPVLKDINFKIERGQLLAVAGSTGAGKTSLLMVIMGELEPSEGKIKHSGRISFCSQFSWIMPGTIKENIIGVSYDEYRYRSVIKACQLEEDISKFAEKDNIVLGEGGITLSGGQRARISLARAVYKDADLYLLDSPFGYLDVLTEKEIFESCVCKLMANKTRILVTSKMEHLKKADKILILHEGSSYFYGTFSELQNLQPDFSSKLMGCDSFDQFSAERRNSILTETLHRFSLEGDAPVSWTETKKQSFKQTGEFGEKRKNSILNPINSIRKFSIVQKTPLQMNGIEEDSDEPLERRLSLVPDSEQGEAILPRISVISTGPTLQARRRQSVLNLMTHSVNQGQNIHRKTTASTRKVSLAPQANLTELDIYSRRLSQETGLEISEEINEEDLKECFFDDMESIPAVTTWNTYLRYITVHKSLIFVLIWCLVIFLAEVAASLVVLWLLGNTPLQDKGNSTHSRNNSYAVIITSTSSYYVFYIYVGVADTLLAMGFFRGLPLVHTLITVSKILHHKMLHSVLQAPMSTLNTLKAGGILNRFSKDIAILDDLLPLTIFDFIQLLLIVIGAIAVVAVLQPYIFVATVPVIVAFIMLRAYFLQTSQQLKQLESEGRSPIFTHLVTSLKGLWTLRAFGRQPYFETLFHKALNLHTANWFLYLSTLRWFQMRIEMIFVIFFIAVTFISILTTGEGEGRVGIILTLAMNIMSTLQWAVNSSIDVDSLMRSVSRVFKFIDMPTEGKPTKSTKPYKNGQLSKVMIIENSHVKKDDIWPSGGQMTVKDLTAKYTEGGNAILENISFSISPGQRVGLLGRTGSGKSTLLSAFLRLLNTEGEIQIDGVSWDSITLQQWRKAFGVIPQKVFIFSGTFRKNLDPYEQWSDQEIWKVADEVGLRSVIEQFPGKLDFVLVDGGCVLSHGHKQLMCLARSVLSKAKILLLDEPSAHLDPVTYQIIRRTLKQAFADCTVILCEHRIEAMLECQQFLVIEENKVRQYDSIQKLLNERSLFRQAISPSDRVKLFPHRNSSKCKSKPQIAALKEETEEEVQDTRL

Compound	TECC24 @ 10 μM over DMSO (AUC fold over DMSO) (CFTR)	DSLS NBD1/3D Human Stability delta-T (° C.) @ 100 (μM) (NBD1/3D)
CO[C@]1(C)C[C@@](c2cc(F)cc(CCC(=O)O)c2)(c2cnc(-c3cc(Oc4c(F)c(F)c5[nH]ccc5c4S(C)(=O)=O)ccc3F)[nH]2)C1 [Example 74, 3-(3-((1r,3r)-1-(2-(5-((6,7-difluoro-4-(methylsulfonyl)-1H-indol-5-yl)oxy)-2-fluorophenyl)-1H-imidazol-5-yl)-3-methoxy-3-methylcyclobutyl)-5-fluorophenyl)propanoic acid]	A (“A” refers to AUC @10 uM >= 12)	A (A: T ≥ 10° C.)
Cc1c(Oc2ccc(F)c(-c3ncc(C(C)(O)c4cccc(CCC(=O)O)n4)[nH]3)c2)c(F)cc2[nH]ccc12 (centres unmarked) [Example 272, 3-(6-(1-(2-(2-fluoro-5-((6-fluoro-4-methyl-1H-indol-5-yl)oxy)phenyl)-1H-imidazol-5-yl)-1-hydroxyethyl)pyridin-2-yl)propanoic acid]	B (“B” refers to AUC @10 uM between 4-12)	B (B: 5-10° C.)
CP(C)(=O)c1c(Oc2ccc(F)c(-c3ncc(C4(c5cc(F)cc(CCC(=O)O)c5)CC(F)(F)C4)[nH]3)c2)c(F)cc2[nH]ccc12 [Example 80, 3-(3-(1-(2-(5-((4-(dimethylphosphoryl)-6-fluoro-1H-indol-5-yl)oxy)-2-fluorophenyl)-1H-imidazol-5-yl)-3,3-difluorocyclobutyl)-5-fluorophenyl)propanoic acid]	C (“C” refers to AUC @ 10 uM <= 4)	A (A: T ≥ 10° C.)
CC(c1cccc(CCC(=O)O)c1)(c1cnc(-c2cc(Oc3c(F)cc4[nH]ccc4c3S(C)(=O)=O)ccc2F)[nH]1)C(F)F (centres unmarked) [Example 276, 3-(3-(1,1-Difluoro-2-(2-(2-fluoro-5-((6-fluoro-4-(methylsulfonyl)-1H-indol-5-yl)oxy)phenyl)-1H-imidazol-5-yl)propan-2-yl)phenyl)propanoic acid]	C (“C” refers to AUC @ 10 uM <= 4)	A (A: T ≥ 10° C.)
CCC(CC)(c1cccc(CCC(=O)O)c1)c1cnc(-c2cc(Oc3c(F)cc4[nH]ccc4c3C)ccc2F)[nH]1 [Example 159, 3-(3-(3-(2-(2-fluoro-5-((6-fluoro-4-methyl-1H-indol-5-yl)oxy)phenyl)-1H-imidazol-5-yl)pentan-3-yl)phenyl)propanoic acid]	B (“B” refers to AUC @10 uM between 4-12)	B (B: 5-10° C.)
CS(=O)(=O)c1c(Oc2cccc(-c3ccn(Cc4cccc(CCC(=O)O)c4)n3)c2)ccc2[nH]ccc12 [Example 40]	A (“A” refers to AUC @10 uM >= 12)	A (A: T ≥ 10° C.)
O=C(O)CCc1cc(F)cc(Cc2cnc(-c3cc(Oc4c(F)cc5[nH]ccc5c4F)ccc3F)[nH]2)c1F [Example 124, 3-(3-((2-(5-((4,6-difluoro-1H-indol-5-yl)oxy)-2-fluorophenyl)-1H-imidazol-5-yl)methyl)-2,5-difluorophenyl)propanoic acid]	B (“B” refers to AUC @10 uM between 4-12)	B (B: 5-10° C.)
O=C(O)CCc1cccc(Cc2cnc(-c3cc(Oc4c(F)cc5[nH]ccc5c4CC4CCCS4(=O)=O)ccc3F)[nH]2)c1F (centres unmarked) [Example 125, 3-(3-((2-(5-((4-((1,1-dioxidotetrahydrothiophen-2-yl)methyl)-6-fluoro-1H-indol-5-yl)oxy)-2-fluorophenyl)-1H-imidazol-5-yl)methyl)-2-fluorophenyl)propanoic acid]	A (“A” refers to AUC @10 uM >= 12)	A (A: T ≥ 10° C.)
CNC(=O)c1c(Oc2ccc(F)c(-c3ncc(Cc4cccc(CCC(=O)O)c4)[nH]3)c2)c(F)cc2[nH]ccc12 [Example 140, 3-(3-((2-(2-Fluoro-5-((6-fluoro-4-(methylcarbamoyl)-1H-indol-5-yl)oxy)phenyl)-1H-imidazol-5-yl)methyl)phenyl)propanoic acid]	C (“C” refers to AUC @ 10 uM <= 4)	B (B: 5-10° C.)
CS(=O)(=O)c1c(Oc2ccc(F)c(-c3ncc(C4(c5cccc(CCC(=O)O)c5)CCOC4)[nH]3)c2)c(F)cc2[nH]ccc12 (centres unmarked) [Example 45, 3-(3-(3-(2-(2-Fluoro-5-((6-fluoro-4-(methylsulfonyl)-1H-indol-5-yl)oxy)phenyl)-1H-imidazol-5-yl)tetrahydrofuran-3-yl)phenyl)propanoic acid]	B (“B” refers to AUC @10 uM between 4-12)	A (A: T ≥ 10° C.)
[2H]C([2H])([2H])C(C#N)(c1cccc(CCC(=O)O)c1)c1cnc(-c2cc(Oc3c(F)c(F)c4[nH]ccc4c3F)ccc2F)[nH]1 (single isomer, unassigned) [Example 64A, 3-(3-(1-Cyano-1-(2-(2-fluoro-5-((4,6,7-trifluoro-1H-indol-5-yl)oxy)phenyl)-1H-imidazol-5-yl)ethyl-2,2,2-d3)phenyl)propanoic acid]	B (“B” refers to AUC @10 uM between 4-12)	B (B: 5-10° C.)
CC(C#N)(c1cccc(CCC(=O)O)c1)c1c[nH]c(-c2cc(Oc3c(F)cc4[nH]ccc4c3CC(F)(F)F)ccc2F)n1 (centres unmarked) [Example 52, 3-(3-(1-cyano-1-(2-(2-fluoro-5-((6-fluoro-4-(2,2,2-trifluoroethyl)-1H-indol-5-yl)oxy)phenyl)-1H-imidazol-4-yl)ethyl)phenyl)propanoic acid]	B (“B” refers to AUC @10 uM between 4-12)	B (B: 5-10° C.)

More lines, main results first:

TECC24 @ 10 μM over DMSO (AUC fold over DMSO) (CFTR)	Compound	DSLS NBD1/3D Human Stability delta-T (° C.) @ 100 (μM) (NBD1/3D)
A (“A” refers to AUC @10 uM >= 12)	CC(c1cnc(-c2cc(Oc3c(F)cc4[nH]ccc4c3CC(F)(F)F)ccc2F)[nH]1)c1cccc(CCC(=O)O)c1F (single isomer, unassigned) [Example 128B, 3-(2-fluoro-3-(1-(2-(2-fluoro-5-((6-fluoro-4-(2,2,2-trifluoroethyl)-1H-indol-5-yl)oxy)phenyl)-1H-imidazol-5-yl)ethyl)phenyl)propanoic acid]	A (A: T ≥ 10° C.)
A (“A” refers to AUC @10 uM >= 12)	[2H]C([2H])([2H])C(C#N)(c1cccc(CCC(=O)O)c1)c1cnc(-c2cc(Oc3c(F)c(F)c4[nH]ccc4c3F)ccc2F)[nH]1 (single isomer, unassigned) [Example 64B, 3-(3-(1-Cyano-1-(2-(2-fluoro-5-((4,6,7-trifluoro-1H-indol-5-yl)oxy)phenyl)-1H-imidazol-5-yl)ethyl-2,2,2-d3)phenyl)propanoic acid]	B (B: 5-10° C.)
C (“C” refers to AUC @ 10 uM <= 4)	CC(c1cnc(-c2cc(Oc3c(F)cc4[nH]ccc4c3CP(C)(C)=O)ccc2F)[nH]1)c1cccc(CCC(=O)O)c1F (single isomer, unassigned) [Example 133B, 3-(3-(1-(2-(5-((4-((dimethylphosphoryl)methyl)-6-fluoro-1H-indol-5-yl)oxy)-2-fluorophenyl)-1H-imidazol-5-yl)ethyl)-2-fluorophenyl)propanoic acid]	A (A: T ≥ 10° C.)
A (“A” refers to AUC @10 uM >= 12)	CC(c1nnc(-c2cc(Oc3c(F)cc4[nH]ccc4c3F)ccc2F)[nH]1)c1cccc(CCC(=O)O)c1F (single isomer, unassigned) [Example 252A, 3-(3-(1-(5-(5-((4,6-difluoro-1H-indol-5-yl)oxy)-2-fluorophenyl)-4H-1,2,4-triazol-3-yl)ethyl)-2-fluorophenyl)propanoic acid]	B (B: 5-10° C.)

From US20240279220A1, “INDOLE COMPOUNDS AND METHODS OF USE” (Genzyme Corporation, priority 2021, published 2024)
